Experimental data as given in article PMC2903464, “NPR-B natriuretic peptide receptors in human corneal epithelium: mRNA, immunohistochemistochemical, protein, and biochemical pharmacology studies” (Molecular Vision, 2010).

Molecular target: T1, NPR-B (Homo sapiens, UniProt P20594)
T1 construct: gene NPR2; endogenous membrane guanylyl cyclase receptor in intact CEPI-17-CL4 cells; NPR-A also expressed; homodimer
T1 sequence (P20594 23-1047): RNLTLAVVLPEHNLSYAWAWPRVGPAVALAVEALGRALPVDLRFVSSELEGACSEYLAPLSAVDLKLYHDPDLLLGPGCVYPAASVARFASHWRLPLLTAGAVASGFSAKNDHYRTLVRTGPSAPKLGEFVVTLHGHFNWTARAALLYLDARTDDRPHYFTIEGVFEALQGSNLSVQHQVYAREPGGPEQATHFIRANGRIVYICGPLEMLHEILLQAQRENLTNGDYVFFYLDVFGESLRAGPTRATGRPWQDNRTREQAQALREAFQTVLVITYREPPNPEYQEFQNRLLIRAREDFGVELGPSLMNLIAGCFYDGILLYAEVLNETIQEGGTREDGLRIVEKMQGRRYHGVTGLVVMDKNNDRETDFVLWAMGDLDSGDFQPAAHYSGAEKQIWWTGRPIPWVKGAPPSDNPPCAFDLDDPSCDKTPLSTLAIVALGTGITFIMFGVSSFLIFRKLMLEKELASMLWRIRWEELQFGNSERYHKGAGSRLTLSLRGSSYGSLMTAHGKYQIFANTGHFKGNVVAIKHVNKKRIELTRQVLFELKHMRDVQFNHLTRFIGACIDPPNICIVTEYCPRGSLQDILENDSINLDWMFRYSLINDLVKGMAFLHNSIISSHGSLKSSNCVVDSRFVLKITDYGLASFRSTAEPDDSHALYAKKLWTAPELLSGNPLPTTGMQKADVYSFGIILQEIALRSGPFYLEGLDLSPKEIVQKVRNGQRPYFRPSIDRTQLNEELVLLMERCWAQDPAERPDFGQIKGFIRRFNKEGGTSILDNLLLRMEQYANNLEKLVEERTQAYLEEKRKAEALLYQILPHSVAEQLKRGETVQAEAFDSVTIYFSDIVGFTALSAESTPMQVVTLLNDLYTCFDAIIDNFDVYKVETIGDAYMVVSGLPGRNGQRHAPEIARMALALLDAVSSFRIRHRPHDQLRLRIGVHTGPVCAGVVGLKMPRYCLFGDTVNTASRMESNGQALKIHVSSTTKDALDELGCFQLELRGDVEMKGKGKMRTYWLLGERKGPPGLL
Test: inhibition of CNP fragment-induced cGMP accumulation in CEPI-17-CL4 cells, enzyme immunoassay
Type: cell-based
Conditions: 30 nM CNP fragment as agonist, 1 mM IBMX, 23 °C, 20 min pre-incubation; partial inhibition; native cells expressing NPR-A and NPR-B; compound described as NPR-A antagonist

Ki: 5.3 ± 1.7 µM
SMILES: O=C1Nc2ccccc2C1=O [isatin]
